Results as given in US20040076974A1, “Liver necrosis predictive genes” (priority 2002, published 2004).
Where “and” joins values, the source holds several entries; their conditions need not be identical. Equal values may be shown once. Read-outs that look alike come from different tables or passages of the source.

Key:
Sprague Dawley rats = conditions: rat, in vivo; for Liver Necrosis / Score (histopathology liver necrosis severity score): ip
Summary of the method: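 Toxicity calls (necrosis present or absent at 72 h) and histopathology scores were correlated with tissue gene expression from Crl:CD Sprague Dawley rats. Animals, usually 3 treated with compound by i.p. route and 3 given vehicle, were killed at 6, 24 or 72 h and tissues frozen immediately in liquid nitrogen.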

[1] = system: toxicologically relevant rat genes (rat CT array); conditions: rat, in vivo

SMILES: O=P1(N(CCCl)CCCl)NCCCO1 (centres unmarked) [cyclophosphamide]
- Liver Toxicity Necrosis Classification (Sprague Dawley rats): no
- Liver Necrosis (Sprague Dawley rats; 25 mg/kg): no
- Score (histopathology liver necrosis severity score) (Sprague Dawley rats; 25 mg/kg): 1
- Liver Necrosis (Sprague Dawley rats; 100 mg/kg): no
- Score (histopathology liver necrosis severity score) (Sprague Dawley rats; 100 mg/kg): 1
- 3-hydroxyisobutyrate dehydrogenase expression [1]: 0.9805 and 0.7489 and 0.9559 and 1.069
- 14-3-3 zeta expression [1]: 1.184 and 1.14 and 0.9397 and 1.393 and 1.097 and 1.241 and 0.8233 and 0.7916
- 60S ribosomal protein L6 expression [1]: 0.9039 and 0.9014 and 0.8838 and 1.028 and 0.8728 and 0.8315
- ATPase inhibitor (rat mitochondrial IF1 protein) expression [1]: 0.7509 and 0.9233 and 0.8847 and 0.6961 and 0.9379 and 0.8829 and 0.8577 and 0.9897
- Adenine nucleotide translocator 1 expression [1]: 0.9086 and 0.7561 and 1.167
- Aflatoxin B1 aldehyde reductase expression [1]: 0.6743 and 0.8573 and 0.9459 and 0.6588 and 0.7015
- Alpha-1 microglobulin/bikunin precursor (Ambp) expression [1]: 1.017 and 0.5993 and 0.8086
- Alpha-2-macroglobulin expression [1]: 0.846 and 0.9185 and 0.7109 and 1.376 and 0.7513
- Alpha-2-macroglobulin, sequence 2 expression [1]: 0.9485 and 1.095 and 1.193
- Alpha-prothymosin expression [1]: 0.6454 and 0.6204
- Alpha-tubulin expression [1]: 1.198 and 0.7656 and 0.8189
- Annexin V expression [1]: 1.206 and 1.05 and 1.01
- Apolipoprotein All expression [1]: 0.9781 and 0.8882 and 0.8841
- Apolipoprotein C1 expression [1]: 0.9407 and 0.9263 and 1.074
- Apolipoprotein CIII expression [1]: 0.9783 and 0.6934 and 0.9372
- Aquaporin-3 (AQP3) expression [1]: 0.9643 and 0.9481 and 0.9808
- Arginosuccinate synthetase 1 expression [1]: 1.222 and 0.8241 and 1.258
- Bax (alpha) expression [1]: 1.239 and 1.237 and 1.357 and 1.269 and 0.9338
- Beta-actin, sequence 2 expression [1]: 1.01 and 0.7994 and 0.7978
- Beta-tubulin, class I expression [1]: 0.6539 and 0.688
- Betaine homocysteine methyltransferase (BHMT) expression [1]: 0.479 and 0.46 and 0.7332
- Biliverdin reductase expression [1]: 0.8817 and 0.9203 and 1
- C-reactive protein expression [1]: 1.634 and 0.981 and 1.457
- CDK108 expression [1]: 0.8582 and 0.7188 and 0.8687
- Calpactin I heavy chain expression [1]: 1.229 and 1.24 and 1.238 and 1.077 and 1.066 and 1.019 and 0.9156
- Calpain 2 expression [1]: 0.949 and 0.9377 and 0.9321
- Cathepsin B expression [1]: 0.8937 and 0.8218 and 0.8443
- Cathepsin S expression [1]: 1.022 and 1.151
- Cofilin expression [1]: 1.007 and 0.8938 and 0.9356
- Collagen type II expression [1]: 0.9485 and 0.8839 and 0.6238
- Contrapsin-like protease inhibitor (CPi-21) expression [1]: 1.085 and 0.6397 and 0.8351
- Cyclin D1 expression [1]: 0.8933 and 1.39
- Cystatin C expression [1]: 0.9711 and 1.107 and 0.9417
- Dynamin-1 (D100) expression [1]: 0.9779 and 1.159 and 1.053 and 0.8876 and 0.9989 and 0.9805 and 0.8392 and 0.9019
- Elongation factor-1 alpha expression [1]: 1.136 and 0.9264
- Epidermal growth factor expression [1]: 1.068 and 1.046 (2×) and 0.855 and 1.03
- F1-ATPase beta subunit expression [1]: 0.9746 and 0.7787 and 0.8888
- Fas antigen expression [1]: 1.289 and 1.407 and 0.9112 and 1.614 and 1.141
- Fatty acid synthase expression [1]: 0.8145 and 0.6404 and 0.4288
- Gadd45 expression [1]: 0.951 and 0.9302 and 1.226 and 0.8099 and 0.9252
- Gadd153 expression [1]: 1.107 and 1.088 and 1.217 and 1.23 and 1.048
- Glutathione S-transferase theta-1 expression [1]: 1.063 and 0.5752 and 0.7421
- Heme oxygenase expression [1]: 0.9535 and 0.8807 and 1.153 and 0.8353 and 0.9394 and 1.116 and 1.353 and 1.508
- High affinity IgE receptor gamma chain (FcERIgamma) expression [1]: 0.8735 and 0.8896 and 0.9764
- Hypoxanthine-guanine phosphoribosyltransferase expression [1]: 0.9194 and 0.7728 and 0.8641
- ID-1 expression [1]: 1.442 and 1.187 and 1.516 and 0.9754 and 1.354
- IgE binding protein expression [1]: 0.8797
- Integrin beta1 expression [1]: 1.174 and 0.9675 and 1.666 and 0.9992
- Interleukin-18 expression [1]: 0.9442 and 1.131
- JNK1 stress activated protein kinase expression [1]: 1.083 and 1.357
- L-gulono-gamma-lactone oxidase expression [1]: 0.9031 and 1.152 and 0.724 and 0.7478 and 0.9085
- Lecithin: cholesterol acyltransferase expression [1]: 1.164 and 0.8942 and 0.9655
- Matrin F/G expression [1]: 1.192 and 0.8718 and 1.349 and 1.163
- Melanoma-associated antigen ME491 expression [1]: 0.8571 and 0.8832 and 0.9165
- Monocyte chemotactic protein receptor (CCR2) expression [1]: 0.9135 and 0.9294 and 1.707 and 0.9161 and 1.021
- Multidrug resistant protein-1 expression [1]: 1.07 and 0.9469 and 1.398
- Multidrug resistant protein-2 expression [1]: 1.024 and 1.129 and 1.355
- NADP-dependent isocitrate dehydrogenase, cytosolic expression [1]: 0.8988 and 1.062
- NIPK expression [1]: 1.292 and 0.8721
- Nucleoside diphosphate kinase beta isoform expression [1]: 0.9788 and 0.8819 and 0.9694
- Organic anion transporter 3 expression [1]: 1.199 and 1.24 and 0.8444 and 0.9666
- Organic cation transporter 3 expression [1]: 0.9369 and 0.9031 and 0.9971 and 1.049 and 1.006 and 0.9297 and 0.8878
- Ornithine decarboxylase expression [1]: 1.176 and 1.138 and 1.239 and 1.627 and 1.232 and 1.15 and 0.9487 and 1.103
- Osteoactivin expression [1]: 1.044 and 1.068 and 1.102
- PAR interacting protein expression [1]: 0.9853 and 0.8819 and 1.001 and 0.9074 and 0.8501
- Phase-1 RCT-15 expression [1]: 1.548
- Phase-1 RCT-24 expression [1]: 0.8922
- Phase-1 RCT-33 expression [1]: 0.9894 and 0.9036 and 0.7825 and 0.5992
- Phase-1 RCT-36 expression [1]: 0.8405 and 0.8638 and 0.7841
- Phase-1 RCT-38 expression [1]: 0.6634
- Phase-1 RCT-39 expression [1]: 1.102 and 0.8162
- Phase-1 RCT-40 expression [1]: 0.9476 and 0.7827 and 0.6627 and 0.9191
- Phase-1 RCT-43 expression [1]: 1.413
- Phase-1 RCT-48 expression [1]: 0.7872
- Phase-1 RCT-49 expression [1]: 0.9994
- Phase-1 RCT-50 expression [1]: 1.001 and 0.9172
- Phase-1 RCT-57 expression [1]: 1
- Phase-1 RCT-58 expression [1]: 0.9564
- Phase-1 RCT-61 expression [1]: 0.956 and 0.9001
- Phase-1 RCT-65 expression [1]: 1.662
- Phase-1 RCT-68 expression [1]: 1.562
- Phase-1 RCT-78 expression [1]: 0.8268
- Phase-1 RCT-81 expression [1]: 0.9793
- Phase-1 RCT-88 expression [1]: 0.7545 and 0.7728 and 0.8998 and 0.9204
- Phase-1 RCT-89 expression [1]: 0.8326
- Phase-1 RCT-92 expression [1]: 0.7803 and 0.7782
- Phase-1 RCT-117 expression [1]: 0.9098
- Phase-1 RCT-121 expression [1]: 0.9382
- Phase-1 RCT-123 expression [1]: 0.8497
- Phase-1 RCT-128 expression [1]: 0.7223
- Phase-1 RCT-137 expression [1]: 0.7713
- Phase-1 RCT-138 expression [1]: 0.9171
- Phase-1 RCT-144 expression [1]: 0.8012 and 0.9797 and 0.8356
- Phase-1 RCT-146 expression [1]: 0.8995
- Phase-1 RCT-149 expression [1]: 1.199
- Phase-1 RCT-152 expression [1]: 0.9267 and 0.8689
- Phase-1 RCT-154 expression [1]: 0.9702
- Phase-1 RCT-156 expression [1]: 1.626
- Phase-1 RCT-164 expression [1]: 1.443 and 0.9271
- Phase-1 RCT-179 expression [1]: 0.9473 and 0.8452 and 0.9271
- Phase-1 RCT-180 expression [1]: 0.9312 and 0.9629
- Phase-1 RCT-182 expression [1]: 0.7286 and 0.6249 and 0.7487 and 1.104
- Phase-1 RCT-189 expression [1]: 1.097 and 0.7075 and 0.8923
- Phase-1 RCT-192 expression [1]: 1.102
- Phase-1 RCT-207 expression [1]: 0.9999 and 1.403 and 0.9634 and 0.8151
- Phase-1 RCT-211 expression [1]: 1.001
- Phase-1 RCT-213 expression [1]: 0.9194 and 0.9272
- Phase-1 RCT-227 expression [1]: 0.8544 and 0.7558
- Phase-1 RCT-230 expression [1]: 0.8887
- Phase-1 RCT-241 expression [1]: 0.9823
- Phase-1 RCT-258 expression [1]: 1.294 and 1.004 and 1.001
- Phase-1 RCT-260 expression [1]: 0.9269
- Phase-1 RCT-264 expression [1]: 0.7874
- Phase-1 RCT-270 expression [1]: 0.9664 and 0.6832
- Phase-1 RCT-271 expression [1]: 0.642 and 0.7477
- Phase-1 RCT-288 expression [1]: 0.8319 and 0.9535
- Phase-1 RCT-290 expression [1]: 0.6874 and 0.7078 and 0.8375
- Phase-1 RCT-291 expression [1]: 1 and 0.8077 and 0.9279
- Phase-1 RCT-292 expression [1]: 0.8838
- Poly(ADP-ribose) polymerase expression [1]: 0.9399 and 0.8855 and 1.07
- Presenilin-1 expression [1]: 0.6993 and 0.8827 and 0.7827
- Proliferating cell nuclear antigen gene expression [1]: 0.8773 and 0.9599 and 1
- Protein tyrosine phosphatase, receptor type, D expression [1]: 1.351 and 1.117
- Pyruvate kinase, muscle expression [1]: 0.9707 and 1.019 and 0.8026
- Retinol dehydrogenase type III expression [1]: 1.384 and 0.6954 and 0.7914
- Ribosomal protein S8 expression [1]: 0.9951 and 0.8646 and 0.9055
- Ribosomal protein S17 expression [1]: 0.973 and 0.9247 and 0.8883 and 1.41 and 1.034 and 0.9413
- Stathmin expression [1]: 1.012 and 1.005 and 0.8767
- Thioredoxin-1 (Trx1) expression [1]: 0.9618 and 0.9127 and 0.8599
- Thymidylate synthase expression [1]: 1.077 and 1.121 and 1.142
- Thymosin beta-10 expression [1]: 1.026 and 0.8658 and 0.6552
- Tissue plasminogen activator expression [1]: 0.8917 and 0.8347 and 0.9056
- Transitional endoplasmic reticulum ATPase expression [1]: 0.9095 and 0.8634 and 0.9474
- Transthyretin expression [1]: 0.9173 and 0.9384 and 0.8358 and 0.667 and 1.075
- Ubiquitin conjugating enzyme (RAD 6 homologue) expression [1]: 0.9811 and 1.057 and 0.8291 and 1.341 and 1.041 and 1.145 and 0.8334 and 1.02
- Uncoupling protein 2 expression [1]: 0.8638 and 0.7241
- Zinc finger protein expression [1]: 0.991 and 1.034 and 1.076 and 1.004 and 1.101 and 0.9835 and 1.081 and 1.11
- c-myc expression [1]: 0.9533 (2×) and 0.912 and 1.636 and 0.8965
- p55CDC expression [1]: 0.9412 and 1.059 and 0.9495
- {Phase-1 RCT 98} expression [1]: 0.8899 and 0.9469
- {Ribosomal protein 16} expression [1]: 1.097 and 0.9357 and 0.8372
